Laboratory results as given in a melting point compilation (Tetko et al.; mined from patent text by program, amines drawn as free bases though some values may be those of a salt).

For `Cn1c2cc(OCC(O)CO)ccc2c2c3c(c(-c4ccccc4Cl)cc21)C(=O)NC3=O` (configuration not stated), the melting point was 287 to 290 °C. `CCCc1nn(C)c2c(=O)[nH]c(Cc3cccc(N)c3)nc12` showed a melting point of 207 to 210 °C. Compound `CCc1cc2c(cc1N)N1CCCN=C1S2` has a melting point of 210 °C. With `CCOC(=O)CNc1ccc2ncccc2c1` the melting point was 122 to 123 °C. `CCOC(=O)c1c(C)nc(Cl)c([N+](=O)[O-])c1Cl` gave a melting point of 45 to 46 °C. `CN(C)C(=O)/C=C/c1ccc(C(=O)c2c(-c3ccc(O)cc3)sc3cc(O)ccc23)cc1` showed a melting point of 208 to 211 °C. For `CCOC(=O)CON=c1c2nccc3cccc(c32)n2cccc12`, the melting point was 134 °C. Work on `C#Cc1ccc(C(=O)NC(C#N)OCC)cc1` (configuration not stated) yielded a melting point of 104 to 106 °C. `Cc1ccc(C=Cc2cccc(C#N)n2)cc1` showed a melting point of 137 to 138 °C. Compound `CC(C)NC(=S)N1CCc2[nH]cnc2C1c1ccccc1` (configuration not stated) has a melting point of 198 °C. In the case of `NS(=O)(=O)c1cccc(C(=O)Nc2ccc(-n3nc(C(F)(F)F)cc3C(F)(F)F)cc2)c1`, the melting point is reported as 177 to 178 °C. With `C=C1c2c(ccc(OC(C)=O)c2OC(C)=O)C(=O)N2CCCCC12` (configuration not stated) the melting point was 129 to 132 °C. For `O=C(NCCc1ccccn1)c1ccc2cc(C(=O)N3CC(CCl)c4ccc([N+](=O)[O-])cc43)[nH]c2c1` (configuration not stated), the melting point was 204 to 207 °C. Compound `Cc1cc(O)cc(-c2nn(CC#N)cc2-c2cc(NC[C@H](C)O)nc(-c3cccnc3)n2)c1` has a melting point of 236 °C. For `Cc1ccc(NC(=O)c2ccc(O)c([N+](=O)[O-])c2)cc1C`, the melting point was 209 to 212 °C. Compound `CCn1ncc2c1ncc1c(N3CCN(C)CC3)nc3cc(C)nn3c12` has a melting point of 167 to 169 °C. Compound `COc1ccc(C#N)c(O)c1` has a melting point of 169 to 171 °C. `NC(=O)N(c1ccc(F)cc1)c1ccc(F)cc1` gave a melting point of 150 to 153 °C. `COC1=C(OC)C(=O)C(CN2CCN(C(=S)SC)CC2)=C(C)C1=O` gave a melting point of 115 to 116 °C. In the case of `COc1ccc(-c2nc3cc(F)ccc3s2)cc1OC(=O)c1ccccc1`, the melting point is reported as 160 °C. For `CCC(Oc1c(C)cc(C)cc1C)C(=O)OC1CC(O)C=C2C=CC(C)C(CCC3CC(O)CC(=O)O3)C21` (mixture of isomers), the melting point was 134 to 136 °C. For `Cc1cc2cc(CN3CCOCC3)cnc2cc1NC(=O)c1ccc(-c2ccc(F)cc2)cc1`, the melting point was 153 to 158 °C. Compound `CCOC(=O)c1cnc2c(C)csc2c1NCc1ccccc1` has a melting point of 99 to 100 °C. Work on `O=C(CNc1ccc(F)cc1)Nc1ccccc1C(=O)O` yielded a melting point of 217 to 219 °C. Compound `CCOc1cc(Br)cc2c1OC(C)(C)C2` has a melting point of 55 to 58 °C. With `COC(=O)C=NOCC(=O)C=CN(C)C` the melting point was 63 to 64 °C. For `O=[N+]([O-])c1cnc(Sc2cnccn2)s1`, the melting point was 129 to 130 °C. For `CCOC(=O)Cc1cc(Br)c(OC(=S)N(C)C)c(Br)c1`, the melting point was 93 to 95 °C. With `CCCc1c(C(=O)O)c(C(F)F)nc(C(F)(F)F)c1C(=O)O` the melting point was 236 °C. `Cc1nc(N2CCN(CCCC(F)(F)F)C2=O)sc1C(=O)NCc1cccnc1` gave a melting point of 167 to 169 °C. For `CCCCCCCOC(=O)Oc1ccncc1`, the melting point was 44 to 50 °C. `CC(C)(C)OC(=O)N1CCn2c(c(C#N)c(Cl)c2C2CC2)C1` showed a melting point of 132 to 134 °C. Work on `Cc1c(NC(=O)c2ccc(OCCCC(F)(F)F)cc2F)ccc2cc(CN3CCCC3)cnc12` yielded a melting point of 148 °C. Work on `O=C(O)CCSCC(=O)c1cc2sc(=O)[nH]c2cc1Cl` yielded a melting point of 195 to 197 °C. With `COc1cc(OC)c(-c2nc3cccnc3[nH]2)cc1C=CC(=O)c1ccc(C(=O)O)cc1` the melting point was 222 to 224 °C. Compound `Cc1[nH]c2cccc(/C=C/C(=O)OCc3ccccc3)c2c1Cc1cccnc1` has a melting point of 180 to 182 °C. Compound `O=C1NCC(CN2CCCCC2)c2c[nH]c3cccc1c23` (configuration not stated) has a melting point of 119 to 122 °C. `Cn1nnc2c(N3CCOCC3)nc(Cl)nc21` showed a melting point of 168 °C. With `Cn1ncc2c1-c1cn[nH]c1CC2` the melting point was 180 to 186 °C. Compound `COc1ccc(-c2cc3cc(OC)cc([N+](=O)[O-])c3o2)cc1` has a melting point of 141 °C. `Cc1cc(Cl)nnc1-c1ccccc1` showed a melting point of 122 °C. With `CCc1c2c(nc3cc(F)c(F)cc13)-c1cc3c(c(=O)n1C2)COC(=O)CC3(O)CC` (configuration not stated) the melting point was > 275 °C.
